Laboratory results as given in patent US4240964A, “2-(O-Hydroxyphenyl)-pyrrole and process for its preparation” (BASF Aktiengesellschaft, priority 1978, dated 1980).
Counter-ions that a name gives are not always drawn.

Experiments:
[1] = for Therapeutic range, absolute (LD 50 / ED 50%): LD 50 i.p. mice, ED 50% i.v. rats; for Therapeutic range (LD 50 / ED 50%), times greater than propranolol: comparison with propranolol; for Therapeutic range, relative (Propranolol = 1.00): relative to propranolol
Method: Isoproternol was administered before, and 5 minutes after, the intravenous administration of the test substances.

[2] = test system: isoproterenol-induced tachycardia (β1); assay: β1-sympatholytic action: inhibition of isoproterenol-induced tachycardia in pithed rats; assay type: in vivo, rats (Sprague-Dawley, Rattus norvegicus); conditions: for ED50: Rattus norvegicus, 5 min, isoproterenol 0.1 ug/kg i.v. before and 5 minutes after test substance, read-out: β1-sympatholytic action ED 50% (dose which inhibits the isoproterenol-induced tachycardia by 50%); for β1-sympatholytic activity, times greater than propranolol: comparison with propranolol
Method: The β-sympatholytic action was tested on rats, in comparison with the known β-sympatholytic agent propranolol (1-isopropylamino)-1-naphthyloxy-2-propanol.HC1).
^1 Inhibition of isoproterenolinduced tachycardia in pithed rats.
Intravenous administration
^2 Dose which inhibits the isoproterenolinduced tachycardia by 50%

[3] = in vivo; conditions: mouse, ip

SMILES	Therapeutic range, absolute (LD 50 / ED 50%) [1]	Therapeutic range (LD 50 / ED 50%), times greater than propranolol [1] [times]	Therapeutic range, relative (Propranolol = 1.00) [1]	ED50 ([2]; intravenous, pithed rats) [mg/kg]	β1-sympatholytic activity, times greater than propranolol [2] [times]	LD50 at 24 h [3] [mg/kg]	R.A. (relative activity, Propranolol = 1.00), β1-sympatholytic action ([2]; intravenous, pithed rats, relative to propranolol)
CC(C)NCC(O)COc1ccccc1-c1ccc[nH]1 (stereo not shown) [Example III, 2-[2-(3-isopropylamino-2-hydroxypropoxy)-phenyl]-pyrrole fumarate hemihydrate]	452	4	4.07	0.004	3.2	97.2	–
CC(C)(C)NCC(O)COc1ccccc1-c1ccc[nH]1.O=C(O)/C=C/C(=O)O (stereo not shown) [Example II, 2-[2-(3-tert.-butylamino-2-hydroxypropoxy)-phenyl]-pyrrole fumarate]	767	7	6.91	0.00227	5.6	165	–
CC(C)NCC(O)COc1cccc2ccccc12 (stereo not shown) [Propranolol, reference compound]	–	–	–	–	–	–	1.00
